How the values were obtained:
[1] = test system: azoxystrobin (QoI)-sensitive (S) strains of Colletotrichum acutatum; assay: Example 2: pre-plant dip of strawberry plants inoculated with azoxystrobin-sensitive isolate, field trial; format: in vivo; settings: for DI: Disease incidence (average) / DS: Disease severity, by ranking (average) 0-4: after four weeks; for W: Weight (average) / Y: Yield (average): after six weeks
[2] = test system: azoxystrobin (QoI)-resistant (R) strains of Colletotrichum acutatum; assay: Example 2: pre-plant dip of strawberry plants inoculated with azoxystrobin-resistant isolate, field trial; format: in vivo; settings: for DI: Disease incidence (average) / DS: Disease severity, by ranking (average) 0-4: after four weeks; for W: Weight (average) / Y: Yield (average): after six weeks
[3] = test system: anthracnose (Colletotrichum acutatum), naturally infected plants; assay: Example 2: pre-plant dip of naturally infected strawberry plants (Nursery 2), field trial; format: in vivo; settings: cv. Portola (Nursery 2); for DI: Disease incidence (average) / DS: Disease severity, by ranking (average) 0-4 / LSI: Leaf spot incidence (average): after four weeks; for W: Weight (average) / Y: Yield (average): after six weeks
[4] = test system: Colletotrichum acutatum; assay: Example 1: pre-plant dip of cv. Portola baby strawberry plants with natamycin, fruit yield after 6 weeks; format: in vivo
Protocol: Baby strawberry plants of cv. Portola were either inoculated or non-inoculated (naturally infected). Inoculation was done by dipping plants for 4 minutes in conidial suspensions of Colletotrichum acutatum, and then drip-dried. Plants were then stored for 8 h at 20° C., or 3 days at 5° C. […] The plants were then planted in different rows for each treatment, one feet apart and the yield was evaluated for fruit yield after 6 weeks. See below Table 1 for results.

[5] = test system: mixture of four Colletotrichum acutatum isolates, two sensitive and two resistant to QoI fungicides; assay: Example 3: dip treatments on Florida Radiance transplants for control of Colletotrichum acutatum; format: in vivo; settings: cv. Florida Radiance; for Plant diameter / Plant diameter compared to the non-treated control (in words): 35 DAP; for Yield (marketable fruit): seven harvests
[6] = test system: strawberry plants (two plant cultivars); settings: in vivo
Protocol: Plants were evaluated periodically for disease and phytotoxicity over the course of the trial. As plants develop disease symptoms, fungal isolations were done from diseased tissue to validate the symptoms as anthracnose. For this, pieces of crown and leaf tissues from the margins between diseased and healthy tissue were surface-sterilized with sodium hypochlorite and rinsed with sterile, distilled water. A small sample of this plant tissue was removed, cut into pieces, and plated onto 10-cm potato dextrose agar media plates amended with ampicillin and rifampicin to inhibit bacterial growth. Plates were incubated for 5-6 days at 25° C., and fungal colonies were identified using morphological characteristics. A subset of fungal colonies was confirmed by PCR using species-specific primers for Colletotrichum acutatum (Förster and Adaskaveg, Phytopathology (1999) 89 1056-1065).

[7] = test system: fungi within the Ascomycota (e.g. Botrytis and Colletotrichum spp.) and Zygomycota (e.g. Rhizopus stolonifer); settings: for most of these organisms; cited from earlier work
[8] = cv. Fronteras (Nursery 1), 4 min dip, rates/150 gal: Actinovate 24 oz., azoxystrobin 8 fl. oz., Bravo 24 fl. oz., Switch 8 oz.
[9] = cv. Fronteras (Nursery 1), rates/150 gal: Actinovate 24 oz., azoxystrobin 8 fl. oz., Bravo 24 fl. oz., Switch 8 oz.
[10] = cv. Portola (Nursery 1), 4 min dip, rates/150 gal: Actinovate 24 oz., azoxystrobin 8 fl. oz., Bravo 24 fl. oz., Switch 8 oz.
[11] = cv. Portola (Nursery 1), rates/150 gal: Actinovate 24 oz., azoxystrobin 8 fl. oz., Bravo 24 fl. oz., Switch 8 oz.
[12] = 4 min dip, rates/150 gal: Actinovate 24 oz., azoxystrobin 8 fl. oz., Bravo 24 fl. oz., Switch 8 oz.
[13] = rates/150 gal: Actinovate 24 oz., azoxystrobin 8 fl. oz., Bravo 24 fl. oz., Switch 8 oz.
[14] = cv. Fronteras (Nursery 1), natamycin 13.3 oz. per 150 gal.
[15] = cv. Fronteras (Nursery 1), natamycin 26.6 oz. per 150 gal.
[16] = cv. Portola (Nursery 1), natamycin 13.3 oz. per 150 gal.
[17] = cv. Portola (Nursery 1), natamycin 26.6 oz. per 150 gal.
[18] = natamycin 13.3 oz. per 150 gal.
[19] = natamycin 26.6 oz. per 150 gal.
[20] = natamycin 26.6 fl. oz./100 gal. (dipped in the field)
[21] = natamycin 26.6 fl. oz./100 gal. (dipped indoors to avoid sunlight)

In the case of `CO/C=C(/C(=O)OC)c1ccccc1Oc1cc(Oc2ccccc2C#N)ncn1` [Azoxystrobin], the “DI: Disease incidence (average)” value [1, 8] is reported as 7.5%, the “DS: Disease severity, by ranking (average) 0-4” value (from here on “DS: Disease severity, by ranking”) [1, 8] is reported as 0.2 and the “W: Weight (average)” value [1, 9] is reported as 10.68 g per fruit. The “Y: Yield (average)” value [1, 9] was 378.1 g per treated plot, the “DI: Disease incidence (average)” value [1, 10] was 33.1% and the “DS: Disease severity, by ranking” value [1, 10] was 0.8. The “W: Weight (average)” value [1, 11] was 6.4 g per fruit, the “Y: Yield (average)” value [1, 11] was 157.7 g per treated plot and the “DI: Disease incidence (average)” value [2, 8] was 100.0%. The “DS: Disease severity, by ranking” value [2, 8] was 2.9, the “W: Weight (average)” value [2, 9] was 7.9 g per fruit and the “Y: Yield (average)” value [2, 9] was 16.4 g per treated plot. The “DI: Disease incidence (average)” value [2, 10] was 100.0%, the “DS: Disease severity, by ranking” value [2, 10] was 4.0 and the “W: Weight (average)” value [2, 11] was 0.0 g per fruit. The “Y: Yield (average)” value [2, 11] was 0.0 g per treated plot, the “DI: Disease incidence (average)” value [3, 12] was 41.7% and the “DS: Disease severity, by ranking” value [3, 12] was 0.5. The “LSI: Leaf spot incidence (average)” value [3, 12] was 0.5 number of spots, the “W: Weight (average)” value [3, 13] was 9.8 g per fruit and the “Y: Yield (average)” value [3, 13] was 1114.8 g per treated plot.
In the case of `C[C@@H]1C/C=C/C=C/C=C/C=C/[C@H](O[C@@H]2O[C@H](C)[C@@H](O)[C@H](N)[C@@H]2O)C[C@@H]2O[C@](O)(C[C@@H](O)C[C@H]3O[C@@H]3/C=C/C(=O)O1)C[C@H](O)[C@H]2C(=O)O` [Natamycin, natamycin], the “Average weight per individual strawberry” value ([4]; natamycin 13.3 oz./150 gallon) is reported as 8.7 g, the “Average weight per individual strawberry” value ([4]; natamycin 26.6 oz./150 gallon) is reported as 8.7 g and the “DI: Disease incidence (average)” value [1, 14] is reported as 37.5%. For the same compound, the “DS: Disease severity, by ranking” value [1, 14] was 0.8, the “DI: Disease incidence (average)” value [1, 15] was 32.5% and the “DS: Disease severity, by ranking” value [1, 15] was 0.6. The “W: Weight (average)” value [1, 14] was 8.14 g per fruit, the “Y: Yield (average)” value [1, 14] was 161.8 g per treated plot and the “W: Weight (average)” value [1, 15] was 8.31 g per fruit. For the same compound, the “Y: Yield (average)” value [1, 15] was 161.1 g per treated plot, the “DI: Disease incidence (average)” value [1, 16] was 32.5% and the “DS: Disease severity, by ranking” value [1, 16] was 0.8. For the same compound, the “DI: Disease incidence (average)” value [1, 17] was 27.5%, the “DS: Disease severity, by ranking” value [1, 17] was 0.4 and the “W: Weight (average)” value [1, 16] was 7.9 g per fruit. For the same compound, the “Y: Yield (average)” value [1, 16] was 224.1 g per treated plot, the “W: Weight (average)” value [1, 17] was 7.0 g per fruit and the “Y: Yield (average)” value [1, 17] was 188.4 g per treated plot. The “DI: Disease incidence (average)” value [2, 14] was 37.5%, the “DS: Disease severity, by ranking” value [2, 14] was 0.8 and the “DI: Disease incidence (average)” value [2, 15] was 54.2%. For the same compound, the “DS: Disease severity, by ranking” value [2, 15] was 1.3, the “W: Weight (average)” value [2, 14] was 8.9 g per fruit and the “Y: Yield (average)” value [2, 14] was 261.7 g per treated plot. The “W: Weight (average)” value [2, 15] was 9.3 g per fruit, the “Y: Yield (average)” value [2, 15] was 145.2 g per treated plot and the “DI: Disease incidence (average)” value [2, 16] was 82.5%. The “DS: Disease severity, by ranking” value [2, 16] was 2.2, the “DI: Disease incidence (average)” value [2, 17] was 29.4% and the “DS: Disease severity, by ranking” value [2, 17] was 0.4. The “W: Weight (average)” value [2, 16] was 7.9 g per fruit, the “Y: Yield (average)” value [2, 16] was 112.4 g per treated plot and the “W: Weight (average)” value [2, 17] was 8.6 g per fruit. For the same compound, the “Y: Yield (average)” value [2, 17] was 235.0 g per treated plot, the “efficacy when plants are inoculated with azoxystrobin-resistant isolates (in words)” value ([2]; pre-plant dip) was “very effective” and the “DI: Disease incidence (average)” value [3, 18] was 57.5%. The “DS: Disease severity, by ranking” value [3, 18] was 0.9, the “LSI: Leaf spot incidence (average)” value [3, 18] was 0.6 number of spots and the “DI: Disease incidence (average)” value [3, 19] was 53.7%. For the same compound, the “DS: Disease severity, by ranking” value [3, 19] was 0.7, the “LSI: Leaf spot incidence (average)” value [3, 19] was 0.4 number of spots and the “W: Weight (average)” value [3, 18] was 8.7 g per fruit. The “Y: Yield (average)” value [3, 18] was 714.4 g per treated plot, the “W: Weight (average)” value [3, 19] was 8.7 g per fruit and the “Y: Yield (average)” value [3, 19] was 742.5 g per treated plot. For the same compound, the Plant diameter [5, 20] was 5.7 bcd in, the Plant diameter [5, 21] was 5.9 abc in and the “Plant diameter compared to the non-treated control (in words)” value ([5]; natamycin dipped in the field: excepted from the treatments that significantly increased plant diameter) was “With the exception of natamycin (dipped in the field)”. The “Plant diameter compared to the non-treated control (in words)” value ([5]; natamycin: treatment dipped indoors) was “significantly increased plant diameter”, the “Disease incidence (diseased plants, dead+wilted)” value ([5]; 42 DAP, natamycin 26.6 fl. oz./100 gal. (dipped in the field)) was 2.5 de % and the “Disease incidence (diseased plants, dead+wilted)” value ([5]; 42 DAP, natamycin 26.6 fl. oz./100 gal. (dipped indoors to avoid sunlight)) was 0.0 e %. For the same compound, the “Disease incidence (diseased plants, dead+wilted)” value ([5]; 42 DAP, natamycin 26.6 fl. oz./100 gal. (dipped indoors to avoid sunlight), listed as natamycin) was 0.0%, the “Disease incidence compared to the non-treated control (in words)” value ([5]; 42 DAP, natamycin: both treatments (field and indoors)) was “reduced disease incidence compared to the non-treated control” and the “Yield compared to the non-treated control (in words)” value ([5]; natamycin: dipped in the field) was “higher yields than the non-treated control”. For the same compound, the “Yield (marketable fruit)” value [5, 20] was 2924 abc lb./A, the “Yield (marketable fruit)” value [5, 21] was 2547 bcde lb./A and the phytotoxicity [6] was “no phytotoxicity is observed”. The minimum inhibitory concentration [7] was under 10 ppm.

From patent US10881099B2, “Process to improve crop yield” (priority 2016, dated 2021)
